Experimental data reported in patent US20040198819A1, “Biological response modifier composition and uses thereof” (priority 2001, published 2004).

Legend:
peritoneal macrophages [1] = test: TNF-α release by mouse peritoneal macrophages (ELISA); format: cell-based, C57BL/6 mice; conditions: in vitro culture
Method: (§1) Peritoneal macrophages are harvested from C57BL/6 mice 72 hours after intraperitoneal injection of 1.5 ml of 4% protease peptone. The macrophages are then stimulated in vitro with medium alone, 50 ng LPS, or BRM. Measurements of the stimulation are performed with respect to TNF (by ELISA) and NO (by spectrophotometric assay using the Greiss reagent) levels in duplicate experiments.
In vitro synergy of BRM with IFN-γ for TNF-α release is studied using the same peritoneal mouse macrophages derived from C57BL/6 mice treated as above. […] The same macrophages stimulated with either LPS or IFN-γ release almost 3000 pg/ml of TNF-α.

peritoneal macrophages [2] = test: Nitric oxide release by mouse peritoneal macrophages (Greiss reagent); format: cell-based, C57BL/6 mice; conditions: in vitro
Method: as §1
In vitro synergy of BRM with LPS for nitric oxide (NO) is addressed in the same procedure as above, except NO is determined in the supernatant of the treated macrophages. As above, the assay for NO is spectrophotometric and uses a Greiss reagent.
In vitro synergy of BRM with IFN-γ for NO release is studied, using the same peritoneal mouse macrophages derived from C57BL/6 mice treated as above.

IFN-γ: interferon gamma, conventional macrophage activator
release of TNF-α (peritoneal macrophages [1]): ~3000 pg/mL | release of NO by macrophages, stimulus alone (peritoneal macrophages [2]): enhanced NO production
